From PMC11339798, “Dual inhibitors of Pseudomonas aeruginosa virulence factors LecA and LasB” (Chemical Science, 2024) come the findings set out here.

The target of data set [1] is T1, LecA (Pseudomonas aeruginosa, UniProt Q05097).
T1 construct: made in house; host or cells: E. coli (plasmid pET25-pail)
As to the kind of experiment: Competitive binding assay for LecA based on fluorescence polarization. Also on record: species or system P. aeruginosa. Here is the method:
The four thiols 17, 18, 24 and 25 as well as three disulfides 26a, 26b and 27 were then evaluated for their activity against LecA using a competitive binding assay based on fluorescence polarization (Fig. 4B). […]
Expression and purification of LasB and LecA
LecA was expressed recombinantly using E. coli pET25-pail, whereas LasB was isolated from P. aeruginosa PA14 culture supernatant as described previously. 1,2
LecA labeling with fluorescein was performed in analogy to Sommer et al. 3 and Beshr et al.4 To this end fluorescein isothiocyanate (FITC) was freshly dissolved in carbonate-bicarbonate buffer with pH of 9.3 at a concentration of 3 mg mL-1. Subsequently, 66 µL of this FITC solution was combined with 1.4 mL of LecA at a concentration of 60 µM in carbonate-bicarbonate buffer, pH 9.3. The resulting mixture was then incubated at 25 °C with shaking at 500 rpm for 1 hour. Then, extensive washing with PBS/Ca2+ in a 5 kDa molecular weight cutoff centrifugal concentrator was performed to remove excess dye and buffer the labelled protein. […]
Competitive binding assay for LecA
The procedure for the fluorescence polarization-based competitive binding assay for LecA was performed as reported by Joachim et al. with modifications. 1 The assay was performed in TBS/Ca2+ buffer (20 mM Tris, 137 mM NaCl, 2.6 mM KCl at pH 7.4 supplemented with 1 mM CaCl 2 and contained 5% DMSO). The final protein concentration in the assay was 5 µM for LecA. Fluorescence intensities were recorded on a PheraStar FS plate reader (BMG Labtech GmbH, Germany) and polarization was calculated using MARS Data Analysis (BMG Labtech).
IC50 values were obtained from a four-parameter curve-fitting procedure. Averages and standard deviations were calculated from at least three independent experiments of technical
(In general: In fluorescence polarisation assays a small probe gives low polarisation when free and higher when bound to something large.)

Data set [2] has as its target T1, LecA. As to the kind of experiment: Surface plasmon resonance direct LecA binding assay (immobilized LecA). Further details: species or system P. aeruginosa. An excerpt: Therefore, we measured the LecA affinity of thiol derivatives 17, 18, 24 and 25 and disulfides 26a, 26b and 27 using surface plasmon resonance (SPR) with LecA covalently immobilized on a sensor chip via amide coupling (Fig. 5 and Table 1). […] Thiols 17, 18, 24 and 25 reached equilibrium binding within 60 s of interaction with immobilized LecA, followed by their dissociation with moderate off-rates. […] Due to the very small off-rates for 26a, 26b and 27, these values have been calculated based on the response at […] of the injected compound and monitoring their dissociation for 30 min (Fig. S2 ^†). The observed very tight binding to immobilized LecA required optimization of the protein surface regeneration procedure. Effective conditions were identified as one injection of 50 mm isopropyl β-D-thiogalactoside in the running buffer, followed by one injection of 20 mm EDTA disodium salt in water. The regenerated chip surface was controlled using an injection of 1 to ensure that the activity of LecA was maintained.
Surface plasmon resonance direct LecA binding assay
SPR experiments were performed on a Reichert 2-channel SPR SR7500DC (Reichert Technologies Life Sciences, Buffalo, NY, USA) at 25 °C. For LecA immobilization, the surface of a HC1000M sensor chip (XanTec bioanalytics GmbH, Düsseldorf, Germany) was preequilibrated with borate buffer (1 M NaCl, 0.1 M sodium borate pH 9.0), followed by activation of the polycarboxylate hydrogel with 0.2 M N-hydroxysuccinimide (NHS) and 0.4 M 1-ethyl-3-(3-dimethylaminopropyl)carbodiimide hydrochloride (EDC‧HCl) in MilliQ water in both channels for 240 s (flow rate 10 μL/min) until the binding response reached 1200 RU.
Then, LecA (100 μg/mL) in 10 mM sodium acetate pH 3.6 was injected on the activated chip surface of one channel (injection time 420 s, flow rate 10 μL/min) and 6000 RU of LecA were immobilized. Unreacted NHS esters in both channels were blocked with 1 M ethanolamine hydrochloride in MilliQ water pH 8.5 (injection time 360 s, flow rate 10 μL/min).
Test compound stock solutions were prepared in DMSO (20 mM stocks for monovalent LecA inhibitors, 20 µM stocks for divalent LecA inhibitors) and were subsequently diluted in 10 mM phosphate buffer (pH 7.4, 2.7 mM KCl, 137 mM NaCl, 100 μM CaCl2) to obtain solutions with […]
Monovalent inhibitors 17, 18, 24 and 25 were injected for 120 s (flow rate 50 μL/min) at concentrations ranging from 0.39–100 µM. Divalent inhibitors 26a, 26b and 27 were injected for 120 s (flow rate 50 μL/min) at concentrations 50–350 nM. The chip surface was regenerated after each inhibitor injection by one injection of 50 mM IPTG in running buffer (10 mM phosphate buffer, pH 7.4, 2.7 mM KCl, 137 mM NaCl, 100 μM CaCl2, 2% DMSO) followed by one injection 20 mM EDTA disodium salt in MilliQ water, and then followed by three injections of the running buffer (injection time 120 s, flow rate 50 μL/min). 100 µM pNP-Gal (1) in running buffer was injected before each analyte to monitor and ensure chip regeneration and […]
Affinity/equilibrium analysis was performed for 1 on the same chip. A stock solution of 1 (10 mM in PBS/CaCl2 buffer) was prepared, then diluted to the required concentrations in running buffer and injected at 1.56–400 µM (injection time 60 s, flow rate 50 μL/min) without regeneration steps. Data analysis was performed using TraceDrawer software (Ridgeview Instruments) using a 1:1 binding model to fit the experimental data. Spikes at the end of the injections were removed in TraceDrawer during the data analysis.

A short description of another data set: Kinetic solubility. Type of data set: physicochemical. Conditions: aqueous buffer, kinetic from dmso stock; 10 mm PBS with 2% DMSO at 37 °C.

Each structure is given as a SMILES string. Bounds are passed on as bounds.

T1 sequence (Q05097 whole entry): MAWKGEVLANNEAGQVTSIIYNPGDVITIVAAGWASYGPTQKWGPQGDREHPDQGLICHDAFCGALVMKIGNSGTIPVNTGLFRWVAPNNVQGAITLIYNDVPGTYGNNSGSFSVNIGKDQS

At LecA [1], `CC(C)CC(SSC(CC(C)C)C(=O)Nc1ccc(S[C@@H]2O[C@H](CO)[C@H](O)[C@H](O)[C@H]2O)cc1)C(=O)Nc1ccc(S[C@@H]2O[C@H](CO)[C@H](O)[C@H](O)[C@H]2O)cc1` (some centres unmarked) [Compound 27] registered an IC50 of 5700 nM. The molecule also gave a Kd at LecA [2] of 4.5 ± 0.4 nM. Also, on LecA [2] (SPR, immobilized LecA), the k a is listed as 5.2 ± 0.6 ×10^4 M^−1 s^−1 and the k d is recorded as 2.2 ± 0.3 ×10^−4 s^−1. Besides, the kinetic solubility in the data set “Kinetic solubility” is greater than 600 µM.

Usually IC50 stands for the concentration at which inhibition is half-maximal. For orientation: Kd means the constant that tells how readily two partners part at equilibrium. A high value points to lower affinity. As a reminder, the kinetic solubility is the concentration staying in solution when a stock, usually in DMSO, is diluted into the medium.
